Experimental findings from patent US8492374B2, “Azaazulene compounds” (Industrial Technology Research Institute, priority 2009, dated 2013) are described below.

Molecules are shown by their SMILES.

The target in assay [1] is T1, FLT-3 kinase (Homo sapiens, UniProt P36888).
T1 construct: human FLT-3 (Arg571-Ser993); GST (N); purchased Cell Signaling Technology HTScan FLT-3 Kinase Assay Kit; host or cells: baculovirus expression system
T1 sequence (P36888 571-993): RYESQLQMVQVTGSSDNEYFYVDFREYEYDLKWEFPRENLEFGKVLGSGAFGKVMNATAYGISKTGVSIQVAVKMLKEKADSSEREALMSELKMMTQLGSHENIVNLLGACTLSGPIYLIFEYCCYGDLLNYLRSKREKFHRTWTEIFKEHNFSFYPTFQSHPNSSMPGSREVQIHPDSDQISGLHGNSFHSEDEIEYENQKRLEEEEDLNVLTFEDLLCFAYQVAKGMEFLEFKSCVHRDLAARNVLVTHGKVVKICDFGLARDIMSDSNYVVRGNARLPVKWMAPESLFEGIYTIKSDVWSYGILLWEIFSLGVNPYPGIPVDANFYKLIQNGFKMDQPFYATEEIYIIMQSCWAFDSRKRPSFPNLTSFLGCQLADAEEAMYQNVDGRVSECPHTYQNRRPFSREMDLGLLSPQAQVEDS
The experiment in a line: FLT-3 kinase DELFIA assay (HTScan FLT-3 Kinase Assay Kit). Format: biochemical. Particulars: 20 uM ATP; for inhibition at 0.1 µM: 0.1 uM compound; for inhibition at 1 µM: 1 uM compound.

Assay [2] has as its target T2, c-KIT kinase (Homo sapiens, UniProt P10721).
T2 construct: human c-KIT (Thr544-Val976); GST (N); purchased Cell Signaling Technology HTScan c-KIT Kinase Assay Kit; host or cells: baculovirus expression system
The experiment in a line: c-KIT kinase DELFIA assay (HTScan c-KIT Kinase Assay Kit). Format: biochemical. Particulars: 20 uM ATP; for inhibition at 0.1 µM: 0.1 uM compound; for inhibition at 1 µM: 1 uM compound. The method, then: Azaazulene Compounds of this invention were treated for their efficacy in inhibiting activities of FLT-3, c-KIT and KDR kinases by biochemical DELFIA (Dissociation Enhanced Lanthanide FIA) assays according to the procedure described below. The assays were conducted by, Division of Cell Engineering, Biomedical Engineering Research Laboratories, Industrial Technology Research Institute, Bldg. 53, 195, sec. 4, Chung Hsing Rd. Chutung, Hsinchu, Taiwan 310, R.O.C.
The c-KIT assay was conducted following the protocol described in Protocol for HTScan® c-KIT Kinase Assay Kit (Cell Signaling Technology®).

Assay [3] has as its system MV4-11 (FLT3-ITD) cell line. The experiment in a line: In vitro cell activity assay (MTT cell viability, 72 hours). The assay is classed as cell-based. Particulars: Homo sapiens, 72 hours at 37° C., 10,000 cells per well, read-out: IC50 against MV4-11. Put shortly:
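Compound serial dilutions applied to MV4-11 (FLT3-ITD) cells, 10,000 per well, for 72 hours at 37° C. Viability by MTT, formazan dissolved in DMSO, absorbance at 600 nm; IC50 by nonlinear regression as concentration halving absorbance versus untreated cells.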

T2 sequence (P10721 544-976): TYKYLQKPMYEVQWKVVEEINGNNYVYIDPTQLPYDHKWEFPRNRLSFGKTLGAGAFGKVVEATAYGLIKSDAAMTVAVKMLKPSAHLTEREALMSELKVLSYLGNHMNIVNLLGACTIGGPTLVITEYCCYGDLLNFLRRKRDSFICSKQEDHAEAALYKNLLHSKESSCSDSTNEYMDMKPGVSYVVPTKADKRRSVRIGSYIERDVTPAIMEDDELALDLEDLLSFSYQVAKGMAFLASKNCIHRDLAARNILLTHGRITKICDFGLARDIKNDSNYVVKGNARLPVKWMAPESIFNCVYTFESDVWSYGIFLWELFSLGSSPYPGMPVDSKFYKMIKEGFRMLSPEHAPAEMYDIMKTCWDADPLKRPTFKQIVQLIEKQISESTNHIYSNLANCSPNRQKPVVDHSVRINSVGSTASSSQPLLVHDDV

In the case of `O=c1[nH]c2cccccc-2c1-c1nc2ccccc2[nH]1` [Compound A1, 3-(benzimidazol-2-yl)-1-azaazulen-2-one, reference compound], in assay [1], at 0.1 µM the inhibition was 11.5% and the inhibition at 1 µM was 59.4%. Also, in assay [2], the inhibition at 0.1 µM is 34.1% and the inhibition at 1 µM stood at 64.5%. In addition, the IC50 in assay [3] is ~1000 nM.
In assay [1], `Nc1ncnc2[nH]c(-c3c4cccccc-4[nH]c3=O)nc12` [Compound B11] came in with an inhibition at 0.1 µM of 12.5% and an inhibition at 1 µM of 27.3%. For the same compound, in assay [2], 0.1 µM produced 15.1% inhibition and the inhibition at 1 µM was 43.7%. Also, the IC50 in assay [3] is 1000 to 5000 nM.
With `COc1ccc2nc(-c3c4cccccc-4[nH]c3=O)cn2c1` [Compound B14], the inhibition at 1 µM amounted to 9.6% in assay [1] and 39.4% in assay [2]. The compound also had an inhibition at 0.1 µM in assay [2] of 20.1%. In addition, in assay [3], the IC50 was 1000 to 5000 nM.
For the compound `O=c1[nH]c2cccccc-2c1-c1nc2cccnc2[nH]1` [Compound B15], in assay [1], the inhibition at 0.1 µM was determined as 8.6% and the inhibition at 1 µM worked out at 18.1%. In assay [2], this compound displayed an inhibition at 0.1 µM of 8.5% and an inhibition at 1 µM of 43.1%. Besides, the half-inhibitory concentration (IC50) in assay [3] fell in the range of 1000 to 5000 nM.
In assay [1], `CN(C)CCCN(C)c1ccc2[nH]c(-c3c4cccccc-4[nH]c3=O)nc2c1` [Compound B21] registered an inhibition at 0.1 µM of 20.1% and an inhibition at 1 µM of 63%. In addition, in assay [2], the inhibition at 0.1 µM was found to be 10.8% and 1 µM produced 55.4% inhibition. Moreover, the IC50 in assay [3] came out at 428 nM.
The like results for `C[N+]1([O-])CC[N+]([O-])(c2ccc3[nH]c(-c4c5cccccc-5[nH]c4=O)nc3c2)CC1` (stereo not drawn) [Compound B70] were, in that order, 11.1%, 27.5%, 40.5%, 86.6% and ~1000 nM.
In assay [1], `O=c1[nH]c2cccccc-2c1-c1nc2cc(N3CCCN(CCF)CC3)ccc2[nH]1` [Compound B80] returned an inhibition at 0.1 µM of 23.1% and an inhibition at 1 µM of 71.4%. In assay [2], this compound returned an inhibition at 0.1 µM of 56.7% and an inhibition at 1 µM of 82.9%. The IC50 in assay [3] stood at 796 nM.
For `O=c1[nH]c2cccccc-2c1-c1nc2cc(N3CCCNCC3)ccc2n1CCCF` [Compound B81] the same measures were 9.9%, 21%, 28.9%, 17.2% and 208 nM.
For `O=c1[nH]c2cccccc-2c1-c1nc2cc(N3CCCN(CCCF)CC3)ccc2[nH]1` [Compound B82] the same measures were 30.3%, 81.6%, 31%, 91.1% and 18.6 nM.
For `O=c1[nH]c2cccccc-2c1-c1nc2cc(N3CCCN(CCCF)CC3)ccc2n1CCCF` [Compound B83], in assay [1], at 0.1 µM the inhibition was 11% and 1 µM produced 21.2% inhibition. Testing at 1 µM in assay [2] gave an inhibition of 19.7%. Also, in assay [3], the IC50 amounted to 227 nM.
In assay [1], `O=c1[nH]c2cccccc-2c1-c1nc2cc(N3CCCN(Cc4cccnc4)CC3)ccc2[nH]1` [Compound B87] showed an inhibition at 0.1 µM of 39.8% and an inhibition at 1 µM of 91.6%. In assay [2], this compound showed an inhibition at 0.1 µM of 49.6% and an inhibition at 1 µM of 96.2%. For the same compound, the IC50 in assay [3] worked out at 88.6 nM.
The like results for `O=CN1CCCN(c2ccc3[nH]c(-c4c5cccccc-5[nH]c4=O)nc3c2)CC1` [Compound B88] were, in that order, 20.6%, 62.4%, 47.2%, 89.2% and 144 nM.
For `O=c1[nH]c2cccccc-2c1-c1nc2cc(N3CCCN(c4ccccn4)CC3)ccc2[nH]1` [Compound B94] the same measures were 17%, 52.3%, 12.3%, 79.1% and 852 nM.
The like results for `O=c1[nH]c2cccccc-2c1-c1nc2cc(N3CCCN(c4ncccc4[N+](=O)[O-])CC3)ccc2[nH]1` [Compound B95] were, in that order, 14.4%, 37.7%, 48.3%, 82.6% and 771 nM.
In assay [1], `Cc1cc(N2CCCN(c3ccc4[nH]c(-c5c6cccccc-6[nH]c5=O)nc4c3)CC2)nc(N(C)C)n1` [Compound B97] gave an inhibition at 0.1 µM of 8.8% and an inhibition at 1 µM of 44.6%. Also, in assay [2], the inhibition at 0.1 µM was found to be 40.1% and the inhibition at 1 µM was 87.2%. Besides, the IC50 in assay [3] fell in the range of 100 to 500 nM.
`O=c1[nH]c2cccccc-2c1-c1nc2cc(-n3ccnc3)ccc2[nH]1` [Compound B115]: in assay [1], at 0.1 µM the inhibition was 25.4% and 1 µM produced 72.7% inhibition. Also, the IC50 in assay [3] came to 306 nM.
In assay [1], `O=C(Nc1ccc(Cl)c(C(F)(F)F)c1)Nc1ccc2[nH]c(-c3c4cccccc-4[nH]c3=O)nc2c1` [Compound B118] gave an inhibition at 0.1 µM of 57.9% and an inhibition at 1 µM of 76.3%. In assay [2], this compound gave an inhibition at 0.1 µM of 66.6% and an inhibition at 1 µM of 36.8%. Also, the IC50 in assay [3] is 64.1 nM.
Take `O=C(Nc1ccc2[nH]c(-c3c4cccccc-4[nH]c3=O)nc2c1)Nc1cc(C(F)(F)F)ccc1F` [Compound B119]: in assay [1], 0.1 µM produced 32% inhibition and at 1 µM the inhibition was 44.6%. The IC50 in assay [3] was 100 to 500 nM.
For `O=C(Nc1ccc2[nH]c(-c3c4cccccc-4[nH]c3=O)nc2c1)Nc1cc(F)ccc1F` [Compound B120] the same measures were 10.2%, 10.1% and 676 nM.
For `O=C(Nc1ccc(F)c(Cl)c1)Nc1ccc2[nH]c(-c3c4cccccc-4[nH]c3=O)nc2c1` [Compound B130] the same measures were 8.6%, 24% and 1000 to 5000 nM.
For `O=C(Nc1ccc2[nH]c(-c3c4cccccc-4[nH]c3=O)nc2c1)Nc1ccccc1C(F)(F)F` [Compound B131] the same measures were 7.9%, 7.3% and 1000 to 5000 nM.
In assay [1], `O=C(Nc1cccc(C(F)(F)F)c1)Nc1ccc2[nH]c(-c3c4cccccc-4[nH]c3=O)nc2c1` [Compound B132] came in with an inhibition at 0.1 µM of 47.5% and an inhibition at 1 µM of 72.4%. Also, the IC50 in assay [3] was 580 nM.
For `O=C(Nc1ccc(C(F)(F)F)cc1)Nc1ccc2[nH]c(-c3c4cccccc-4[nH]c3=O)nc2c1` [Compound B133] the same measures were 30.5%, 53.3% and 100 to 500 nM.
Regarding `O=C(Nc1cc(C(F)(F)F)cc(C(F)(F)F)c1)Nc1ccc2[nH]c(-c3c4cccccc-4[nH]c3=O)nc2c1` [Compound B134], in assay [1], 0.1 µM produced 36.8% inhibition and 1 µM produced 57.3% inhibition. The 50% inhibitory concentration (IC50) in assay [3] was 670 nM.
For `O=C(Nc1ccc2[nH]c(-c3c4cccccc-4[nH]c3=O)nc2c1)Nc1cc(C(F)(F)F)ccc1Cl` [Compound B135] the same measures were 41.4%, 62% and 626 nM.
For `O=C(Nc1ccc2[nH]c(-c3c4cccccc-4[nH]c3=O)nc2c1)Nc1ccc(Cl)cc1C(F)(F)F` [Compound B136] the same measures were 21%, 70.8% and 1000 to 5000 nM.
For `COc1ccccc1NC(=O)Nc1ccc2[nH]c(-c3c4cccccc-4[nH]c3=O)nc2c1` [Compound B137] the same measures were 14.3%, 19% and 50 to 100 nM.
In assay [1], `COc1cccc(NC(=O)Nc2ccc3[nH]c(-c4c5cccccc-5[nH]c4=O)nc3c2)c1` [Compound B138] gave an inhibition at 0.1 µM of 35.6% and an inhibition at 1 µM of 58.1%. Besides, the IC50 in assay [3] was found to be 718 nM.
